Experimental data reported in patent US20070116702A1, “Survival promoting NCAM binding and MCAM ligand binding compounds” (priority 2001, published 2007).

Columns and labels:
Hippocampal cells = experiment: Aggregate cell cultures of hippocampal cells (aggregates counted after 24 h); type: cell-based, rat; details: ligand present during the aggregation of cells; quantified 24 h after seeding
Description: A variety of suitable fragments and variants of NCAM has been discussed above. To be able to identify candidate ligands capable of stimulating NCAM function, where the NCAM function means the function of the NCAM molecule, the inventors have established a simple cell culture system (aggregate cell cultures) that permits a quantitative evaluation of the effect of various ligands. Hippocampal cells are provided from rat embryos. The cells are grown in a defined medium and dissociated cells are seeded in microtiter plates. After 24 h, the, amount of aggregates are counted. Compounds to be tested are added to the cell suspension immediately before seeding of the cells in micro-wells. When NCAM Ig1 binding ligands are present during the aggregation of cells, smaller, but more numerous cell aggregates are seen when quantified 24 h after seeding of the cells. The inhibiting effect of the ligands results in a blockage of the formation of large aggregates from many small aggregates as the adhesion, properties of NCAM are blocked. Thus, small but more numerous cell aggregates are seen in the presence of active ligands.

[1] = system: cells presenting NCAM or NCAM ligands; experiment: Prevention of cell death (survival) of cells presenting NCAM or NCAM ligands; type: cell-based; details: general statement; data only in figures
Description: PC12 cells were differentiated by plating them in 96-well tissue culture plates in defined medium (DMEM) supplemented with NGF (50-100 ng/ml) and were normally used after 6-8 days of NGF treatment. NGF withdrawal was performed as follows: the medium was removed, and the cells were quickly rinsed twice with pre-warmed medium, and then re-fed with DMEM supplemented with C3d. After 2 days of incubation cells were assayed for cell survival by measuring reduction of a novel tetrazolium compound, MTS (Promega, USA), which is bioreduced by cells into a formazan that is soluble in tissue culture medium. The absorbance of the formazan at 490 nm was measured directly from 96 well assay plates without additional processing. The conversion of MTS into the aqueous soluble formazan was accomplished by dehydrogenase enzymes found in metabolically active cells. The quantity of formazan product as measured by the amount of 490 nm absorbance was directly proportional to the number of living cells in culture (Yao and Cooper, 1995; CellTiter 96 Aqueous non-radioactive cell proliferation assay, Promega, 1996; Eilers et al., 1998).
PC12 cells were plated in 96-well tissue culture plates in the absence of growth factors (serum starvation) for 6 days in DMEM supplemented with C3d and assayed for cell survival by reduction of MTS, as described above (Gollapudi and Oblinger, 1999; Williams and Doherty, 1999). […]

cells presenting NCAM = details: by activating a signalling pathway identical to that activated by homophilic NCAM binding; cited from earlier work
NCAM Ig1 domain = target: T1, NCAM Ig1 domain (Rattus norvegicus, UniProt P13596); experiment: Real-time biomolecular interaction analysis (BIAlite surface plasmon resonance), Ig1 applied to immobilised dendrimer peptides; type: binding; details: dendrimer peptides immobilised on sensor chip CM5, 25° C., HBS; two independent experiments
T1 construct: The Ig1 domain of NCAM was produced as a recombinant protein in Pichia pastoris; made in house; host or cells: Pichia pastoris strain His 4 GS-115 (pHIL-S1 plasmid)
T1 sequence (P13596 20-111 limits assumed): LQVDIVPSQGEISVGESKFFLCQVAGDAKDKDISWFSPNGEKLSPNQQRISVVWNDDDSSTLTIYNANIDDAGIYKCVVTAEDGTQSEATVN
Description: The Ig1 domain of NCAM was produced as a recombinant protein in Pichia pastoris. The cDNA fragment of rat NCAM was synthesised by PCR, and amplified cDNA was subcloned into an Xho I/Bam HI site of the pHIL-S1 plasmid (Invitrogen Corporation, San Diego, USA). An E. coli strain Top 10 F′ (Invitrogen Corporation, San Diego, USA) was used for transformation. The recombinant plasmid was linearised with Nsi I and used for transformation of Pichia pastoris strain His 4 GS-115 (Invitrogen Corporation, San Diego, USA). Transformation and selection was performed according to a Pichia Expression Kit manual supplied by the manufacturer. The recombinant protein was designated as Ig1 PP (Ig-like domain 1 produced in P. pastoris) The authenticity of Ig1 PP was secured by amino acid sequencing and MALDI-MS confirming the expected molecular weight of 11 kD. Cells were grown essentially according to the Pichia Expression Kit manual. After induction supernatant from growing cells was filtered through a […] filter, concentrated by ultrafiltration and purified by gel filtration using a Sephadex G-50 column (Pharmacia Biotech AB, Sweden) (Thomsen et al., 1996).
Real-time biomolecular interaction analysis was performed using a BIAlite instrument (Pharmacia Biosensor AB, Sweden). All experiments were performed at 25° C. using Hepes buffered saline (HBS: 10 mM Hepes pH 7.4, 150 mM NaCl, 3.4 mM EDTA, 0.005% v/v Surfactant P20 (Pharmacia Biosensor, Sweden) as running buffer. The flow rate was […]. Dendrimer peptides C3d, D3d and D4d (four peptide-monomers coupled to a backbone consisting of three lysines) were immobilised on a sensor chip CM5 (Pharmacia Biosensor AB, Sweden) using the following procedure: the chip was activated by […] 0.05 M N-hydroxysuccinimide, 0.2 M N-ethyl-N′-(dimethylaminopropyl)carbodiimide; peptides were immobilised using […] peptide solution in HBS at a concentration of 60 μg/ml; finally the chip was blocked by 35 μl 1 M ethanolamine hydrochloride pH 8.5. Binding of Ig1 to dendrimer peptides: […] of Ig1 or Ig1I at the indicated concentrations were applied. […]

| Substance | inhibition of aggregation of hippocampal cells (Hippocampal cells) | preventing cell death [1] | stimulation of outgrowth (cells presenting NCAM) | binding to the NCAM Ig1 domain (NCAM Ig1 domain) |
| --- | --- | --- | --- | --- |
| ASKKPKRNIKA (listed as Homo sapiens) [C3] | inhibited aggregation | capable of preventing cell death | stimulates outgrowth |  |
| C3d: Dendrimer of C3: four peptide-monomers coupled to a backbone consisting of three lysines (ASKKPKRNIKA) |  |  |  | bind to the NCAM Ig1 domain |
| D3d: Dendrimer of D3: four peptide-monomers coupled to a backbone consisting of three lysines (AKKERQRKDTQ) |  |  |  | bind to the NCAM Ig1 domain |
| D4d: Dendrimer of D4: four peptide-monomers coupled to a backbone consisting of three lysines (ARALNWGAKPK) |  |  |  | bind to the NCAM Ig1 domain |
